Measurements reported in ChEMBL document CHEMBL6109154, “Development of Novel PRMT7 Inhibitors for the Treatment of Prostate Cancer” (J Med Chem, 2025).

Tests used:
[1] = target: T1, Protein arginine N-methyltransferase 9 (Homo sapiens, UniProt Q6P2P2); assay: Inhibition of PRMT9 (unknown origin) incubated overnight by Alphascreen microplate reader
T1 sequence (Q6P2P2 whole entry): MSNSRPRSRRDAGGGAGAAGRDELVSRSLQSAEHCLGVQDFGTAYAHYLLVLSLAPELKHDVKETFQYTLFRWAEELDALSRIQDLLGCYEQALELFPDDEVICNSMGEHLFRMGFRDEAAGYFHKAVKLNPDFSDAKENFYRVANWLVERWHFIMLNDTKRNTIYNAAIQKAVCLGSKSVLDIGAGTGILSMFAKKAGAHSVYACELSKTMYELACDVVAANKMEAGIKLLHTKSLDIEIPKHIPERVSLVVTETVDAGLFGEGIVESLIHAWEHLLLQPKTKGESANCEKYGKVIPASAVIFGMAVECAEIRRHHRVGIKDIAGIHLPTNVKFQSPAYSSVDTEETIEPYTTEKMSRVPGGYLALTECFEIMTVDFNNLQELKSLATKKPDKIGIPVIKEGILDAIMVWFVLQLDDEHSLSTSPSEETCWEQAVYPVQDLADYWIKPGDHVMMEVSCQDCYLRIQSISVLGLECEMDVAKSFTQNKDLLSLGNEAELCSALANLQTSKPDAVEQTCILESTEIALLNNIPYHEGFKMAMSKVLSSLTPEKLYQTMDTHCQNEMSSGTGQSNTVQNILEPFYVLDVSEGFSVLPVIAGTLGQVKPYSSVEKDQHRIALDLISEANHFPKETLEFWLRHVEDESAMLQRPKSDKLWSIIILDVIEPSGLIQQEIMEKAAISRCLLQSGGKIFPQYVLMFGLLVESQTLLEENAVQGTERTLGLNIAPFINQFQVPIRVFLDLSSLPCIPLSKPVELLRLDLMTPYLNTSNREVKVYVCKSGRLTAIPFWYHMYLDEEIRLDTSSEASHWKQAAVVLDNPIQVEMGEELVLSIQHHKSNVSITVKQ

[2] = target: T2, Histone-arginine methyltransferase CARM1 (Homo sapiens, UniProt Q86X55); assay: Inhibition of N-terminal FLAG-tagged recombinant full length human PRMT4 extracted from baculovirus expression system preincubated for 10 mins followed by substrate addition and measured after 3 hrs by MTase-Glo detection reagent based luminescence analysis
T2 sequence (Q86X55 whole entry): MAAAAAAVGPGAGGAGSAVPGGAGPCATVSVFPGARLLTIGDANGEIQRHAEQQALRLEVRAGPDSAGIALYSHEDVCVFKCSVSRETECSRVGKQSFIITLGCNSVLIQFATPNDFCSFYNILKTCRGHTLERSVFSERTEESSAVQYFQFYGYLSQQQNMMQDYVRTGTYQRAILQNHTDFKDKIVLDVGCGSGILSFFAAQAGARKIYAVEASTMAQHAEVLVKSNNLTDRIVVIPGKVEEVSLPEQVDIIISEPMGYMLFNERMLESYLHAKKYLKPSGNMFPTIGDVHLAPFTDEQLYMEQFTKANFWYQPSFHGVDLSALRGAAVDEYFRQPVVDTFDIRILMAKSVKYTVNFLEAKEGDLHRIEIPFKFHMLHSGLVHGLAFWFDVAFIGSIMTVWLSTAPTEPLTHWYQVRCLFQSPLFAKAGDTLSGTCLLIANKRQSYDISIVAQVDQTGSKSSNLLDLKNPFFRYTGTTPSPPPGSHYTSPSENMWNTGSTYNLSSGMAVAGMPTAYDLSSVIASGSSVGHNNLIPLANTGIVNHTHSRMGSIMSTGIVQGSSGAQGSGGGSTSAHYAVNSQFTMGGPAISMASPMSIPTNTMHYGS

[3] = target: Protein arginine N-methyltransferase 3 (Homo sapiens, UniProt O60678); assay: Inhibition of N-terminal His-tagged recombinant human PRMT3 (2 to 531 residues) extracted from Escherichia coli preincubated for 10 mins followed by substrate addition and measured after 3 hrs by MTase-Glo detection reagent based luminescence analysis
[4] = target: Protein arginine N-methyltransferase 8 (Homo sapiens, UniProt Q9NR22); assay: Inhibition of N-terminal His-tagged human PRMT8 (61 to 394 residues) extracted from Escherichia coli preincubated for 10 mins followed by substrate addition and measured after 3 hrs by MTase-Glo detection reagent based luminescence analysis
[5] = target: Protein arginine N-methyltransferase 6 (Homo sapiens, UniProt Q96LA8); assay: Inhibition of PRMT6 (unknown origin) preincubated for 10 mins followed by substrate addition and measured after 3 hrs by MTase-Glo detection reagent based luminescence analysis
[6] = target: Protein arginine N-methyltransferase 1 (Homo sapiens, UniProt Q99873); assay: Inhibition of N-terminal FLAG-tagged recombinant full length human PRMT1 extracted from baculovirus expression system preincubated for 10 mins followed by substrate addition and measured after 3 hrs by MTase-Glo detection reagent based luminescence analysis
[7] = test system: VCaP; assay: Antiproliferative activity against human VCaP cells assessed as reduction in cell viability incubated for 48 hrs by CCK8 assay; assay type: functional, cell-based
[8] = target: T3, Protein arginine N-methyltransferase 7 (Homo sapiens, UniProt Q9NVM4); assay: Binding affinity to N-terminal GST-tagged recombinant full length human PRMT7 extracted from baculovirus infected Sf9 cells assessed as dissociation constant by SPR analysis
T3 sequence (Q9NVM4 whole entry): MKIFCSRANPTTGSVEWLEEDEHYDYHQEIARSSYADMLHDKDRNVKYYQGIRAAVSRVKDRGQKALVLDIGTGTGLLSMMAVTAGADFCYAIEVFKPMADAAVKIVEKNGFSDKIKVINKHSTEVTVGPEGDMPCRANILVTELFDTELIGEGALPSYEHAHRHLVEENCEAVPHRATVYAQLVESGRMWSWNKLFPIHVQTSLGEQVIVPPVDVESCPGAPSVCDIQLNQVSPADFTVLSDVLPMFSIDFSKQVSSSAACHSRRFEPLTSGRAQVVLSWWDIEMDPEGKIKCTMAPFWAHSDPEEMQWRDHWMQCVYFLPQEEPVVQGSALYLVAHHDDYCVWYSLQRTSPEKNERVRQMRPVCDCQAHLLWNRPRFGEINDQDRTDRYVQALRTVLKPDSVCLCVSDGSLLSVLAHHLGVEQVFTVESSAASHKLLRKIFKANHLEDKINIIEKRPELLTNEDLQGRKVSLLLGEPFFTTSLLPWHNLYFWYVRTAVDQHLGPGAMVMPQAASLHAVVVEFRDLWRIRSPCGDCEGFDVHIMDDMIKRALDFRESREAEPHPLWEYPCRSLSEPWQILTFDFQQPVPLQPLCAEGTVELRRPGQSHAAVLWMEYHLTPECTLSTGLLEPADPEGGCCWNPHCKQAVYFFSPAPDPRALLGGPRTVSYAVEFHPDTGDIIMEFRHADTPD

[9] = test system: PC-3; assay: Antiproliferative activity against human PC-3 cells assessed as reduction in cell viability incubated for 48 hrs by CCK8 assay; assay type: functional, cell-based; conditions: PC-3, 48 h
[10] = test system: DU-145; assay: Antitumor activity against human DU-145 cells xenografted in male BALB/c nude mouse assessed as tumor growth inhibition at 20 mg/kg, ip relative to control; conditions: DU-145, read-out: TGI
[11] = test system: CWR22R; assay: Antiproliferative activity against human 22Rv1 cells assessed as reduction in cell viability incubated for 48 hrs by CCK8 assay; assay type: functional, cell-based; conditions: 22Rv1, 48 h
[12] = target: T3, Protein arginine N-methyltransferase 7; assay: Inhibition of N-terminal FLAG-tagged recombinant human PRMT7 extracted from baculovirus infected Sf9 cells using Histone H4 (1 to 21) peptide as substrate preincubated for 15 mins followed by [3H]-SAM and substrate addition and measured after 180 mins by microplate counter analysis
[13] = test system: DU-145; assay: Antiproliferative activity against human DU-145 cells assessed as reduction in cell viability incubated for 48 hrs by CCK8 assay; assay type: functional, cell-based; conditions: DU-145, 48 h

Sequence of Protein arginine N-methyltransferase 1 (Q99873 whole entry): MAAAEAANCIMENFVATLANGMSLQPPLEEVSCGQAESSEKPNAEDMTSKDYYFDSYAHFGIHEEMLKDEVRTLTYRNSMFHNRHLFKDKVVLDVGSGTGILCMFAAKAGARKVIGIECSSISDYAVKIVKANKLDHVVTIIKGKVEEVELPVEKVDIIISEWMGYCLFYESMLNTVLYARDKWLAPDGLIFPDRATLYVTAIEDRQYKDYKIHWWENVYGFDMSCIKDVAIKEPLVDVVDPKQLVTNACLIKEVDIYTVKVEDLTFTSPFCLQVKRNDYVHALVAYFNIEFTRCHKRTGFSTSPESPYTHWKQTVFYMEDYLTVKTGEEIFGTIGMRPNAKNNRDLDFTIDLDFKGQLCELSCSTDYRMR
Sequence of Protein arginine N-methyltransferase 3 (O60678 whole entry, the tested form may be a part): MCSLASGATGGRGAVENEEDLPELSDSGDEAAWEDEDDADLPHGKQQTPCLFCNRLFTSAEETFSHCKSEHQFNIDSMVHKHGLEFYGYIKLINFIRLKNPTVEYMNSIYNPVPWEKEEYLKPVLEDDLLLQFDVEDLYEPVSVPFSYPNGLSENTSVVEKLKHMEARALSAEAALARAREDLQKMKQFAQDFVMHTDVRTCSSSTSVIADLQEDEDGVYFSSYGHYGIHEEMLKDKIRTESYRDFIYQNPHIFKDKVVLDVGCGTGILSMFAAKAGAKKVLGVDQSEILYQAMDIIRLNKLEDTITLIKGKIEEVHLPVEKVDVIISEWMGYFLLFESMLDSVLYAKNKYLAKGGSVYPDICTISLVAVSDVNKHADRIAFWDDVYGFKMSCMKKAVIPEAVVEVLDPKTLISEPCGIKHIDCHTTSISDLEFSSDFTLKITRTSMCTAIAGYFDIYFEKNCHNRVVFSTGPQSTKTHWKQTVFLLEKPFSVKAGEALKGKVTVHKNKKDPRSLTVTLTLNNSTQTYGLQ
Sequence of Protein arginine N-methyltransferase 8 (Q9NR22 whole entry, the tested form may be a part): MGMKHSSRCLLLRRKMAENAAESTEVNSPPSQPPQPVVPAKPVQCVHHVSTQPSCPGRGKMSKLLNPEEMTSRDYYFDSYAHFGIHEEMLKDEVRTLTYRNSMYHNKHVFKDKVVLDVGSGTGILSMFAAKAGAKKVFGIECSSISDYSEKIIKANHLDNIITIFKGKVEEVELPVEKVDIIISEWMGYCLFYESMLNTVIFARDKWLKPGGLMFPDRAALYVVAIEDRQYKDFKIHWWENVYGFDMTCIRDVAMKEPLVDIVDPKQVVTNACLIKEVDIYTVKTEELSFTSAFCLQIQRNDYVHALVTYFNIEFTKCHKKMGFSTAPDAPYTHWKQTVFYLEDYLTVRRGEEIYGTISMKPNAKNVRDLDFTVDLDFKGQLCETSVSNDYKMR
Sequence of Protein arginine N-methyltransferase 6 (Q96LA8 whole entry): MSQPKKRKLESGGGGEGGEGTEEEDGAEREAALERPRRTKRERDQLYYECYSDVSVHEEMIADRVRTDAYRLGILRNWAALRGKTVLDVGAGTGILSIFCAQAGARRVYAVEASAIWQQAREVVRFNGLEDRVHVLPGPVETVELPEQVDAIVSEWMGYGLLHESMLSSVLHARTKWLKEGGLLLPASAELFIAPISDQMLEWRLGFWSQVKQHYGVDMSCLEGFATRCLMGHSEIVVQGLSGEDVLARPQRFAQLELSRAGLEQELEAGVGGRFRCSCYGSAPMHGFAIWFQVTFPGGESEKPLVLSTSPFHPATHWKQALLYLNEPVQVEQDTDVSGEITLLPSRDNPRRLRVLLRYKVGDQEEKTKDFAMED

Structure (SMILES)	IC50 [1]	IC50 [2]	IC50 [3]	IC50 [4]	IC50 [5]	IC50 [6]	IC50 [7]	Kd [8]	IC50 [9]	inhibition in vivo at 20 mg/kg [10]	IC50 [11]	IC50 [12]	IC50 [13]
COc1cc(-c2nc(Nc3ccc4nc(C)cc(N)c4c3)c3sccc3n2)cc(OC)c1OC	> 100 µM	> 100 µM	> 100 µM	> 100 µM	> 100 µM	> 100 µM	–	–	–	–	–	–	–
COc1cc(-c2ncc(F)c(Nc3ccc4nc(C)cc(N)c4c3)n2)cc(OC)c1OC	–	–	–	–	–	–	1.66 µM	7.12 µM	1.13 µM	40.3%	1.32 µM	9.91 µM	1.47 µM
COc1cc(-c2ccc3ncc(Nc4ccc(N(C)C)cc4)nc3c2)cc(OC)c1OC	–	–	–	–	–	–	–	–	–	–	–	26 µM	–
